According to patent US20190292167A1, “HETEROAROMATIC COMPOUNDS USEFUL FOR THE TREATMENT OF PROLIFERATIVE DISEASES” (Syros Pharmaceuticals, Inc., priority 2013, published 2019):
Structures can show the parent of a compound that is named as a salt. Where two headings read alike, the source gives them in different places.

Tests used:
Jurkat = experiment: Inhibition of cell proliferation, CellTiter-Glo, 72 hour; type: cell-based; conditions: Blood cancer cell line, 72 hour, read-out: Inhibition of Proliferation of Jurkat Cells
Experimental: The following cancer cell lines were tested with the media conditions indicated: […]

CDK7 = molecular target: T1, CDK7 (Homo sapiens, UniProt P50613); experiment: Adapta kinase assay (Life Technologies) against CDK7, co-factors cyclin H and MNAT1; type: biochemical; conditions: read-out: CDK7 Inhibition
T1 construct: purchased Life Technologies (Adapta kinase assay service)
Experimental: Compounds of the invention were assayed for activity against CDK7 at Life Technologies™ (Grand Island, N.Y.) using their commercially available Adapta® kinase assay services. […] Details of the assay, including the substrate used for CDK7 kinase, are available on the Life Technologies web site (http://www.lifetechnologies.com/us/en/homellife-science/drug-discovery/target-and-lead-identification-and-validation/kinasebiology/kinase-activity-assays.html).
The co-factors used for the assay were cyclin H and MNAT1.

T1 sequence (P50613 whole entry): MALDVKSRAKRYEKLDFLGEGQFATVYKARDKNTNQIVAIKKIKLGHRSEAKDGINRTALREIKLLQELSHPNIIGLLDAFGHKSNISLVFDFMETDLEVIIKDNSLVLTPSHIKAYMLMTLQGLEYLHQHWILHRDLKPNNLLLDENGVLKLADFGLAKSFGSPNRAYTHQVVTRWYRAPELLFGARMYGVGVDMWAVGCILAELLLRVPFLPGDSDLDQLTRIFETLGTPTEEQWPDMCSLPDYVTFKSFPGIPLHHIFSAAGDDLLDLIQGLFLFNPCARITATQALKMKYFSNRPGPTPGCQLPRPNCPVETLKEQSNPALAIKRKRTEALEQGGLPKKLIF
T1 sequence (P51946 whole entry partner): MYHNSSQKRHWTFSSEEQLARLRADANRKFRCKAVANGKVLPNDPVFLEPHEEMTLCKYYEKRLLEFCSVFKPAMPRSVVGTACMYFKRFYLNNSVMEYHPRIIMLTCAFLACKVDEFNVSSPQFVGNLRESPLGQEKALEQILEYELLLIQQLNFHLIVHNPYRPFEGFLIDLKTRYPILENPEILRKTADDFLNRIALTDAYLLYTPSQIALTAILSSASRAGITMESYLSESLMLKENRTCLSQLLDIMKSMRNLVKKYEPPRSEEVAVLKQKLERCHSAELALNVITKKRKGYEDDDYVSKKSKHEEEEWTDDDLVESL
T1 sequence (P51948 whole entry partner): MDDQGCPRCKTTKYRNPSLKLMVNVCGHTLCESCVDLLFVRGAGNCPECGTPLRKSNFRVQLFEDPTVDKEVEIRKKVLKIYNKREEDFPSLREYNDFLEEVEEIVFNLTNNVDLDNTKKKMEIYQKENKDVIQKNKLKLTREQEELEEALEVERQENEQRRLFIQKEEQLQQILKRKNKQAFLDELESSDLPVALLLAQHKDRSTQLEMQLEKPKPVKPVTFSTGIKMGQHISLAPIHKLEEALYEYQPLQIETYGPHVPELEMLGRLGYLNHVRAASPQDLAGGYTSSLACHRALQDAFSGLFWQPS

Structure (SMILES) | IC50 (Jurkat; Homo sapiens, Jurkat, 72 h) [nM] | IC50 (CDK7) [nM] | IC50 (Jurkat) [nM]
C=CC(=O)Nc1ccc(C(=O)NC2CC3(C2)CC(Nc2ncc(Cl)c(-c4c[nH]c5ccccc45)n2)C3)cc1 (stereo not drawn) [Compound 138, 4-acrylamido-N-(6-((5-chloro-4-(1H-indol-3-yl)pyrimidin-2-yl)amino)spiro[3.3]heptan-2-yl)benzamide] | 500 to 5000 | 100 to 1000 | 
CN(C)C/C=C/C(=O)Nc1ccc(C(=O)N2CCC(Nc3ncc(Cl)c(-c4c[nH]c5ccccc45)n3)CC2)c(F)c1 [Compound 115, (E)-N-(4-(4-(5-chloro-4-(1H-indol-3-yl)pyrimidin-2-ylamino)piperidine-1-carbonyl)-3-fluorophenyl)-4-(dimethylamino)but-2-enamide] | < 500 | < 100 | 
NCC(=O)Nc1cccc(Nc2ncc(Cl)c(-c3c[nH]c4ccccc34)n2)c1 [Compound 307, 2-amino-N-(3-(5-chloro-4-(1H-indol-3-yl)pyrimidin-2-ylamino)phenyl)acetamide.TFA] | 500 to 5000 | < 100 | 
Cc1cc(C(=O)N2CCC(Nc3ncc(Cl)c(-c4c[nH]c5ccccc45)n3)CC2)ccc1N [Compound 59, (4-amino-3-methylphenyl)(4-(5-chloro-4-(1H-indol-3-yl)pyrimidin-2-ylamino)piperidin-1-yl)methanone] | < 500 | < 100 | 
CN(C)C/C=C/C(=O)NCCC(=O)Nc1cccc(Nc2ncc(Cl)c(-c3c[nH]c4ccccc34)n2)c1 [Compound 131, (E)-N-(3-(3-(5-chloro-4-(1H-indol-3-yl)pyrimidin-2-ylamino)phenylamino)-3-oxopropyl)-4-(dimethylamino)but-2-enamide] | 500 to 5000 | 100 to 1000 | 
COc1ccc(Cn2c(-c3ccc(NC(=O)/C=C/CN(C)C)cc3)nc3cc(Nc4ncc(Cl)c(-c5c[nH]c6ccccc56)n4)ccc32)cc1 [Compound 133, (E)-N-(4-(5-(5-chloro-4-(1H-indol-3-yl)pyrimidin-2-ylamino)-1-(4-methoxybenzyl)-1H-benzo[d]imidazol-2-yl)phenyl)-4-(dimethylamino)but-2-enamide] | 500 to 5000 | 100 to 1000 | 
Nc1ccc(CN2CCC(Nc3ncc(Cl)c(-c4c[nH]c5ccccc45)n3)CC2)cc1 [Compound 48, N-(1-(4-aminobenzyl)piperidin-4-yl)-5-chloro-4-(1H-indol-3-yl)pyrimidin-2-amine.HCl] | 500 to 5000 | 100 to 1000 | 
CN(C)C/C=C/C(=O)Nc1ccc(C(=O)N2CCC(Nc3ncc(Cl)c(-c4cc[nH]n4)n3)CC2)cc1 [Compound 117, (E)-N-(4-(4-((5-chloro-4-(1H-pyrazol-3-yl)pyrimidin-2-yl)amino)piperidine-1-carbonyl)phenyl)-4-(dimethylamino)but-2-enamide] | > 5000 | > 1000 | 
C=CC(=O)Nc1ccc(NC(=O)[C@H]2CNCC(Nc3ncc(Cl)c(-c4c[nH]c5ccccc45)n3)C2)cc1 (mixture of isomers) [Compound 154, (+/−trans)-N-(4-acrylamidophenyl)-5-((5-chloro-4-(1H-indol-3-yl)pyrimidin-2-yl)amino)piperidine-3-carboxamide] | < 500 | < 100 | 
C=CC(=O)Nc1ccc(NC(=O)C2CNCC(Nc3ncc(Cl)c(-c4c[nH]c5ccccc45)n3)C2)cc1 (racemic) [Compound 153, (+/−cis)-N-(4-acrylamidophenyl)-5-((5-chloro-4-(1H-indol-3-yl)pyrimidin-2-yl)amino)piperidine-3-carboxamide] | < 500 | < 100 | 
Cc1[nH]c2ccccc2c1-c1nc(N[C@@H]2CC[C@H](NC(=O)c3ccc(NC(=O)/C=C/CN(C)C)cc3)C2)ncc1Cl (racemic) [Compound 126, N-((1R,3S)-3-((5-chloro-4-(2-methyl-1H-indol-3-yl)pyrimidin-2-yl)amino)cyclopentyl)-4-((E)-4-(dimethylamino)but-2-enamido)benzamide and N-((1S,3R)-3-((5-chloro-4-(2-methyl-1H-indol-3-yl)pyrimidin-2-yl)amino)cyclopentyl)-4-((E)-4-(dimethylamino)but-2-enamido)benzamide] | < 500 | < 100 | 
Cc1noc(C)c1-c1nc(NC2CCN(C(=O)c3ccc(NC(=O)/C=C/CN(C)C)cc3)CC2)ncc1Cl [Compound 121, (E)-N-(4-(4-((5-chloro-4-(3,5-dimethylisoxazol-4-yl)pyrimidin-2-yl)amino)piperidine-1-carbonyl)phenyl)-4-(dimethylamino)but-2-enamide] | 500 to 5000 | > 1000 | 
Cc1noc(C)c1-c1nc(N[C@H]2CC[C@@H](NC(=O)c3ccc(NC(=O)/C=C/CN(C)C)cc3)C2)ncc1Cl (racemic) [Compound 122, N-((1R,3S)-3-((5-chloro-4-(3,5-dimethylisoxazol-4-yl)pyrimidin-2-yl)amino)cyclopentyl)-4-((E)-4-(dimethylamino)but-2-enamido)benzamide and N-((1S,3R)-3-((5-chloro-4-(3,5-dimethylisoxazol-4-yl)pyrimidin-2-yl)amino)cyclopentyl)-4-((E)-4-(dimethylamino)but-2-enamido)benzamide] | < 500 | 100 to 1000 | 

The next lines start with the values.

IC50 (Jurkat; Homo sapiens, Jurkat, 72 h) [nM] | IC50 (CDK7) [nM] | IC50 (Jurkat) [nM] | Structure (SMILES)
> 5000 | < 100 |  | CN(C/C=C/C(=O)Nc1ccc(CN2CCC(Nc3ncc(Cl)c(-c4c[nH]c5ccccc45)n3)CC2)cc1)CC(N)=O [Compound 146, (E)-4-((2-amino-2-oxoethyl)(methyl)amino)-N-(4-((4-((5-chloro-4-(1H-indol-3-yl)pyrimidin-2-yl)amino)piperidin-1-yl)methyl)phenyl)but-2-enamide]
< 500 | < 100 |  | CN(C/C=C/C(=O)Nc1ccc(C(=O)N2CC[C@@H](Nc3ncc(C#N)c(-c4c[nH]c5ccccc45)n3)C2)cc1)CCO [Compound 111, (E)-N-(4-((R)-3-(5-cyano-4-(1H-indol-3-yl)pyrimidin-2-ylamino)pyrrolidine-1-carbonyl)phenyl)-4-((2-hydroxyethyl)(methyl)amino)but-2-enamide]
< 500 | < 100 |  | N#Cc1cnc(N[C@@H]2CCN(C(=O)c3ccc(NC(=O)/C=C/CN4CCCC4)cc3)C2)nc1-c1c[nH]c2ccccc12 [Compound 108, (E)-N-(4-((R)-3-(5-cyano-4-(1H-indol-3-yl)pyrimidin-2-ylamino)pyrrolidine-1-carbonyl)phenyl)-4-(pyrrolidin-1-yl)but-2-enamide]
500 to 5000 | 100 to 1000 |  | N#Cc1cnc(NC2CCN(C(=O)c3ccc(N)cc3)CC2)nc1-c1c[nH]c2ccccc12 [Compound 26, 2-(1-(4-aminobenzoyl)piperidin-4-ylamino)-4-(1H-indol-3-yl)pyrimidine-5-carbonitrile]
< 500 | < 100 |  | CN(C)C/C=C/C(=O)Nc1ccc(CN2CC[C@@H](Nc3ncc(Cl)c(-c4c[nH]c5ccccc45)n3)C2)cc1 [Compound 144, (R,E)-N-(4-((3-((5-chloro-4-(1H-indol-3-yl)pyrimidin-2-yl)amino)pyrrolidin-1-yl)methyl)phenyl)-4-(dimethylamino)but-2-enamide (E)-4-(dimethylamino)but-2-enoate]
< 500 | < 100 |  | Cc1[nH]c2ccccc2c1-c1nc(NC2CCN(C(=O)c3ccc(NC(=O)/C=C/CN(C)C)cc3)CC2)ncc1Cl [Compound 125, (E)-N-(4-(4-((5-chloro-4-(2-methyl-1H-indol-3-yl)pyrimidin-2-yl)amino)piperidine-1-carbonyl)phenyl)-4-(dimethylamino)but-2-enamide]
500 to 5000 | < 100 |  | CN(C)C/C=C/C(=O)Nc1ccc(S(=O)(=O)N2CC[C@@H](Nc3ncc(Cl)c(-c4c[nH]c5ccccc45)n3)C2)cc1 [Compound 105, (E)-N-(4-((R)-3-(5-chloro-4-(1H-indol-3-yl)pyrimidin-2-ylamino)pyrrolidin-1-ylsulfonyl)phenyl)-4-(dimethylamino)but-2-enamide]
< 500 | < 100 |  | CN1CCN(C/C=C/C(=O)Nc2ccc(C(=O)N3CC[C@@H](Nc4ncc(C#N)c(-c5c[nH]c6ccccc56)n4)C3)cc2)CC1 [Compound 110, (E)-N-(4-((R)-3-(5-cyano-4-(1H-indol-3-yl)pyrimidin-2-ylamino)pyrrolidine-1-carbonyl)phenyl)-4-(4-methylpiperazin-1-yl)but-2-enamide]
< 500 | 100 to 1000 |  | CN(C)C/C=C/C(=O)Nc1ccc(C(=O)N[C@@H]2CC[C@H](Nc3ncc(Cl)c(-c4c[nH]c5ccccc45)n3)C2)cc1 (racemic) [Compound 120, N-((1R,3S)-3-((5-chloro-4-(1H-indol-3-yl)pyrimidin-2-yl)amino)cyclopentyl)-4-((E)-4-(dimethylamino)but-2-enamido)benzamide and N-((1S,3R)-3-((5-chloro-4-(1H-indol-3-yl)pyrimidin-2-yl)amino)cyclopentyl)-4-((E)-4-(dimethylamino)but-2-enamido)benzamide]
< 500 | < 100 |  | CN(C)C/C=C/C(=O)Nc1ccc(C(=O)N[C@@H]2CC[C@H](Nc3ncc(Cl)c(-c4c[nH]c5ccccc45)n3)C2)cc1 [Compound 129, N-((1R,3S)-3-((5-chloro-4-(1H-indol-3-yl)pyrimidin-2-yl)amino)cyclopentyl)-4-((E)-4-(dimethylamino)but-2-enamido)benzamide]
 | < 100 | < 500 | CN(C)CC=CC(=O)Nc1ccc(C(=O)NC2CNCC(Nc3ncc(Cl)c(-c4c[nH]c5ccccc45)n3)C2)cc1 (racemic) [Compound 150, N-((+/−trans)-5-((5-chloro-4-(1H-indol-3-yl)pyrimidin-2-yl)amino)piperidin-3-yl)-4-((E)-4-(dimethylamino)but-2-enamido)benzamide]
